Values of other authors, collected in US4746505A, “Technetium radiodiagnostic fatty acids derived from bisamide bisthiol ligands” (President and Fellows of Harvard College, priority 1985, dated 1988).

Tests used:
[1] = mice
[2] = at carrier-added (CA) and no-carrier-added (NCA) concentrations

kidney activity ([1]; at 5 min post-injection) | blood levels ([1]; over the first 30 min) | stability in vitro [2] | stability in vivo (at carrier-added (CA) and no-carrier-added (NCA) concentrations) | renal excretion (in vivo) | Substance
relatively high kidney activity | 6-8 %/g |  |  |  | ^99m Tc-oxo[N,N'-ethylene-bis(2-mercapto)-[2'-(11-carboxyundecyl)]thio-acetamido]-technetate (+5) [^99m TcO(Undec)ema]
 |  | stable | stable | rapid renal excretion | oxo[N,N'-ethylenebis(2-mercapto-acetamido)]technetate (+5) [[TcO(ema)]^-]
